Measurements published in PubChem BioAssay AID1963851 (Molecular Pharmacology Branch, DTP, NCI, 2024).
pIC50: −log10 of the molar value.

Tested on: 188146-221-R-J1-PDC complex spheroid viability
Experiment: Anticancer human tumor 188146-221-R-J1-PDC patient-derived colon adenocarcinoma cell line growth inhibition [POLQ]
Details: for pIC50: curve of first compound; for viability, T/C: stronger effect = lower value
Method in brief: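 Complex spheroid viability model combining PDC tumour cells with endothelial (HUVEC) and MSC stromal cells. Novobiocin, ART-558 or RP6685 were tested singly and in combination with standard and investigational anticancer drugs. Each was titrated in half-log steps from near clinical Cmax, or from 10 microM where Cmax was unknown.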
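Also: spheroids exposed to compounds for seven days.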
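For viability, T/C in this document: 100% = DMSO vehicle control viability.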

CCc1cc2c(N3CCc4c(cc(Cn5ccnc5)cc4-c4cn(C)nc4C(F)(F)F)C3=O)cc(C)nc2c(OC)n1 + COC1C(OC(N)=O)C(O)C(Oc2ccc3c(O)c(NC(=O)c4ccc(O)c(CC=C(C)C)c4)c(=O)oc3c2C)OC1(C)C
pIC50 (second compound 0.0316 µM): 5.14
pIC50 (second compound 0.1 µM): < 5.00
pIC50 (second compound 0.316 µM): 5.05
pIC50 (second compound 1 µM): < 5.00
pIC50 (second compound 3.16 µM): < 5.00
pIC50 (second compound 10 µM): 5.21
viability, T/C (second compound 0.0316 µM, first compound 0.0316 µM): 112%
viability, T/C (second compound 0.0316 µM, first compound 0.1 µM): 102%
viability, T/C (second compound 0.0316 µM, first compound 0.316 µM): 92.1%
viability, T/C (second compound 0.0316 µM, first compound 1 µM): 88.1%
viability, T/C (second compound 0.0316 µM, first compound 3.16 µM): 66.3%
viability, T/C (second compound 0.0316 µM, first compound 10 µM): 42.8%
viability, T/C (second compound 0.1 µM, first compound 0.0316 µM): 108%
viability, T/C (second compound 0.1 µM, first compound 0.1 µM): 101%
viability, T/C (second compound 0.1 µM, first compound 0.316 µM): 97.7%
viability, T/C (second compound 0.1 µM, first compound 1 µM): 85.4%
viability, T/C (second compound 0.1 µM, first compound 3.16 µM): 66.4%
viability, T/C (second compound 0.1 µM, first compound 10 µM): 55.9%
viability, T/C (second compound 0.316 µM, first compound 0.0316 µM): 106%
viability, T/C (second compound 0.316 µM, first compound 0.1 µM): 108%
viability, T/C (second compound 0.316 µM, first compound 0.316 µM): 105%
viability, T/C (second compound 0.316 µM, first compound 1 µM): 83.3%
viability, T/C (second compound 0.316 µM, first compound 3.16 µM): 62.4%
viability, T/C (second compound 0.316 µM, first compound 10 µM): 48.2%
viability, T/C (second compound 1 µM, first compound 0.0316 µM): 108%
viability, T/C (second compound 1 µM, first compound 0.1 µM): 108%
viability, T/C (second compound 1 µM, first compound 0.316 µM): 101%
viability, T/C (second compound 1 µM, first compound 1 µM): 83.2%
viability, T/C (second compound 1 µM, first compound 3.16 µM): 64.2%
viability, T/C (second compound 1 µM, first compound 10 µM): 53.2%
viability, T/C (second compound 3.16 µM, first compound 0.0316 µM): 104%
viability, T/C (second compound 3.16 µM, first compound 0.1 µM): 114%
viability, T/C (second compound 3.16 µM, first compound 0.316 µM): 103%
viability, T/C (second compound 3.16 µM, first compound 1 µM): 89.2%
viability, T/C (second compound 3.16 µM, first compound 3.16 µM): 73.9%
viability, T/C (second compound 3.16 µM, first compound 10 µM): 51.1%
viability, T/C (second compound 10 µM, first compound 0.0316 µM): 97.5%
viability, T/C (second compound 10 µM, first compound 0.1 µM): 98%
viability, T/C (second compound 10 µM, first compound 0.316 µM): 101%
viability, T/C (second compound 10 µM, first compound 1 µM): 78.5%
viability, T/C (second compound 10 µM, first compound 3.16 µM): 60.2%
viability, T/C (second compound 10 µM, first compound 10 µM): 43.2%

CC(=O)O[C@H]1C(=O)[C@@]2(C)[C@H]([C@H](OC(=O)c3ccccc3)[C@]3(O)C[C@H](OC(=O)[C@H](O)[C@@H](NC(=O)c4ccccc4)c4ccccc4)C(C)=C1C3(C)C)[C@]1(OC(C)=O)CO[C@@H]1C[C@@H]2O + Cc1cccc(N(C)C(=O)C2C(O)CCN2c2nc(C)cc(C(F)(F)F)c2C#N)c1
pIC50 (second compound 0.0316 µM): 7.83
pIC50 (second compound 0.1 µM): 7.87
pIC50 (second compound 0.316 µM): 7.95
pIC50 (second compound 1 µM): 7.87
pIC50 (second compound 3.16 µM): 8.00
pIC50 (second compound 10 µM): 8.00
viability, T/C (second compound 0.0316 µM, first compound 0.00949 µM): 69%
viability, T/C (second compound 0.0316 µM, first compound 0.03 µM): 20.6%
viability, T/C (second compound 0.0316 µM, first compound 0.0949 µM): 11.7%
viability, T/C (second compound 0.0316 µM, first compound 0.3 µM): 12.8%
viability, T/C (second compound 0.0316 µM, first compound 0.949 µM): 13.3%
viability, T/C (second compound 0.0316 µM, first compound 3 µM): 13.3%
viability, T/C (second compound 0.1 µM, first compound 0.00949 µM): 61.8%
viability, T/C (second compound 0.1 µM, first compound 0.03 µM): 23.3%
viability, T/C (second compound 0.1 µM, first compound 0.0949 µM): 12%
viability, T/C (second compound 0.1 µM, first compound 0.3 µM): 11.6%
viability, T/C (second compound 0.1 µM, first compound 0.949 µM): 12.8%
viability, T/C (second compound 0.1 µM, first compound 3 µM): 12.5%
viability, T/C (second compound 0.316 µM, first compound 0.00949 µM): 55%
viability, T/C (second compound 0.316 µM, first compound 0.03 µM): 22.4%
viability, T/C (second compound 0.316 µM, first compound 0.0949 µM): 13.6%
viability, T/C (second compound 0.316 µM, first compound 0.3 µM): 12.6%
viability, T/C (second compound 0.316 µM, first compound 0.949 µM): 13.3%
viability, T/C (second compound 0.316 µM, first compound 3 µM): 11.6%
viability, T/C (second compound 1 µM, first compound 0.00949 µM): 63.3%
viability, T/C (second compound 1 µM, first compound 0.03 µM): 19.4%
viability, T/C (second compound 1 µM, first compound 0.0949 µM): 13.4%
viability, T/C (second compound 1 µM, first compound 0.3 µM): 11%
viability, T/C (second compound 1 µM, first compound 0.949 µM): 13%
viability, T/C (second compound 1 µM, first compound 3 µM): 13.8%
viability, T/C (second compound 3.16 µM, first compound 0.00949 µM): 51.5%
viability, T/C (second compound 3.16 µM, first compound 0.03 µM): 17.5%
viability, T/C (second compound 3.16 µM, first compound 0.0949 µM): 14.1%
viability, T/C (second compound 3.16 µM, first compound 0.3 µM): 12.1%
viability, T/C (second compound 3.16 µM, first compound 0.949 µM): 13.2%
viability, T/C (second compound 3.16 µM, first compound 3 µM): 16.4%
viability, T/C (second compound 10 µM, first compound 0.00949 µM): 51.4%
viability, T/C (second compound 10 µM, first compound 0.03 µM): 17.4%
viability, T/C (second compound 10 µM, first compound 0.0949 µM): 14.1%
viability, T/C (second compound 10 µM, first compound 0.3 µM): 14.8%
viability, T/C (second compound 10 µM, first compound 0.949 µM): 14.6%
viability, T/C (second compound 10 µM, first compound 3 µM): 14.5%
